Tested on: HMPV clinical isolate A2 strain TN 94-49
Test: HMPV antiviral assay, Method 2 (LLC-MK2 cells with CP-100-356, ATP-Lite)
Format: cell-based
Details: human metapneumovirus; hMPV A2 TN/94-49, LLC-MK2 cells with CP-100-356, Method 2
Outline: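 LLC-MK2 rhesus kidney cells (5,000/well) infected in suspension with HMPV A2 TN 94-49 at MOI 0.16, in serum-free medium with final 2 μg/mL TPCK-trypsin and 2 μM CP-100-356. Compounds tested in duplicate from 200 nM, 2.5-fold, 10 points; 7 days at 37 °C. Cell health by ATP-Lite luminescence; EC50 by four-parameter fit.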

Row | SMILES | EC50
1 | COc1cc(C(=O)NC[C@](O)(c2cc3c(c(-c4c(C)cncc4F)n2)OC[C@]3(C)C(N)=O)C2CC2)cc2cn(C3CC3)nc12 [Example 435] | < 200 nM
2 | COc1cc(C(=O)NC[C@@](O)(c2cc3c(c(-n4ccc5ccccc54)n2)OC[C@]3(C)C(N)=O)C2CC2)cc2cn(C3CC3)nc12 [Example 444] | > 200 nM
3 | COc1cc(C(=O)NC[C@](O)(c2cc3c(c(-n4ccc5cnccc54)n2)OC[C@]3(C)C(N)=O)C2CC2)cc2cn(C3CC3)nc12 [Example 447] | < 200 nM
4 | COc1cc(C(=O)NC[C@](O)(c2cc3c(c(-n4ccc5ccncc54)n2)OC[C@]3(C)C(N)=O)C2CC2)cc2cn(C3CC3)nc12 [Example 448] | > 200 nM
5 | COc1cc(C(=O)NC[C@](O)(c2cc3c(c(-n4ccc5ccccc54)n2)OC[C@]3(C)C(N)=O)C(F)(F)F)cc2cn(C(F)F)nc12 [Example 449] | < 200 nM
6 | COc1cc(C(=O)NC[C@](O)(c2cc3c(c(-c4cc(Cl)c(F)cc4F)n2)OC[C@]3(C)C(N)=O)c2nccn2C)cc2cn(C3CC3)nc12 [Example 464] | > 200 nM
7 | COc1cc(C(=O)NCC(O)(c2cc3c(c(-c4cc(Cl)c(F)cc4F)n2)OC[C@]3(C)C(N)=O)c2ccc(Cl)s2)cc2cn(C3CC3)nc12 (stereo partly drawn) [Example 472] | > 200 nM
8 | COc1cc(C(=O)NC[C@@](O)(c2cnc(C3CC3)nc2)c2cc3c(c(-c4cc(Cl)c(F)cc4F)n2)OC[C@]3(C)C(N)=O)cc2cn(C3CC3)nc12 [Example 478] | < 200 nM
9 | COc1cc(C(=O)NC[C@@](O)(c2cncnc2)c2cc3c(c(-c4cc(Cl)c(F)cc4F)n2)OC[C@]3(C)C(N)=O)cc2cn(C3CC3)nc12 [Example 479] | < 200 nM
10 | COc1cc(C(=O)NC[C@](O)(c2cc3c(c(-c4cc(Cl)c(F)cc4F)n2)OC[C@]3(C)C(N)=O)c2ccn(C)n2)cc2cn(C3CC3)nc12 [Example 480] | < 200 nM
11 | COc1cc(C(=O)NC[C@](O)(c2cc3c(c(-c4cc(Cl)c(F)cc4F)n2)OC[C@]3(C)C(N)=O)c2ccnn2C)cc2cn(C3CC3)nc12 [Example 481] | < 200 nM
12 | COc1cc(C(=O)NC[C@@](O)(c2ccc(S(C)(=O)=O)cc2)c2cc3c(c(-c4cc(Cl)c(F)cc4F)n2)OC[C@]3(C)C(N)=O)cc2cn(C3CC3)nc12 [Example 482] | > 200 nM
13 | COc1cc(C(=O)NC[C@@](O)(c2cccc(S(C)(=O)=O)c2)c2cc3c(c(-c4cc(Cl)c(F)cc4F)n2)OC[C@]3(C)C(N)=O)cc2cn(C3CC3)nc12 [Example 483] | < 200 nM
14 | COc1cc(C(=O)NC[C@@](O)(c2ccnc(N)c2)c2cc3c(c(-c4cc(Cl)c(F)cc4F)n2)OC[C@]3(C)C(N)=O)cc2cn(C3CC3)nc12 [Example 484] | < 200 nM
15 | COc1cc(C(=O)NC[C@@](O)(c2ccnc(C)c2)c2cc3c(c(-c4cc(Cl)c(F)cc4F)n2)OC[C@]3(C)C(N)=O)cc2cn(C3CC3)nc12 [Example 485] | < 200 nM
16 | COc1cc(C(=O)NC[C@@](O)(c2cccc(S(N)(=O)=O)c2)c2cc3c(c(-c4cc(Cl)c(F)cc4F)n2)OC[C@]3(C)C(N)=O)cc2cn(C3CC3)nc12 [Example 486] | > 200 nM
17 | COc1cc(C(=O)NC[C@@](O)(c2cnccn2)c2cc3c(c(-c4cc(Cl)c(F)cc4F)n2)OC[C@]3(C)C(N)=O)cc2cn(C3CC3)nc12 [Example 487] | < 200 nM
18 | COc1cc(C(=O)NC[C@@](O)(c2cccc(C#N)c2)c2cc3c(c(-c4cc(Cl)c(F)cc4F)n2)OC[C@]3(C)C(N)=O)cc2cn(C3CC3)nc12 [Example 488] | < 200 nM
19 | COc1cc(C(=O)NC[C@@](O)(c2cccc(Cl)n2)c2cc3c(c(-c4cc(Cl)c(F)cc4F)n2)OC[C@]3(C)C(N)=O)cc2cn(C3CC3)nc12 [Example 489] | < 200 nM
20 | CNc1cc([C@](O)(CNC(=O)c2cc(OC)c3nn(C4CC4)cc3c2)c2cc3c(c(-c4cc(Cl)c(F)cc4F)n2)OC[C@]3(C)C(N)=O)ccn1 [Example 490] | < 200 nM
21 | COc1cc(C(=O)NC[C@@](O)(c2cnoc2)c2cc3c(c(-c4cc(Cl)c(F)cc4F)n2)OC[C@]3(C)C(N)=O)cc2cn(C3CC3)nc12 [Example 491] | < 200 nM
